Source: patent EP4789666A1, “RNA M6A REGULATOR COMPOSITION, PREPARATION METHOD THEREFOR, AND USE THEREOF” (SHANGHAI MERNA THERAPEUTICS CO. LTD, priority 2023, dated 2025)

Experiments:
[1] = system: human HaCaT keratinocytes; assay: m6A methylation level of human keratinocytes (EpiQuik m6A RNA methylation quantification kit); format: cell-based; details: 24 hours, relative to control group 1
Protocol: HaCaT cells were cultured in DMEM culture medium containing 10% fetal bovine serum, 100 U/mL penicillin, and 100 µg/mL streptomycin. Culture dishes were placed in an incubator containing 5% CO2 for culture at 37°C for 24 hours. An equal volume of DMSO was added in control group 1, 50 nM sorafenib, capecitabine, docetaxel, and osimertinib were respectively added in control groups A, B, C, and D, and 400 nM test compounds or nicotinamide were respectively added in sample groups A1, A2, B1, B2, C1, C2, D1, and D2 after the addition of 50 nM corresponding compounds. The cells were continuously cultured for 24 hours, washed with PBS, and then collected by high-speed centrifugation. Total RNA was extracted using Trizol reagent (Sigma Aldrich), and RNA m6A methylation of a sample was quantitatively detected using an EpiQuik m6A RNA methylation quantification kit. The concentrations of positive control samples for a standard curve were 0.01 ng/µl, 0.02 ng/µl, 0.05 ng/µl, 0.1 ng/µl, 0.2 ng/µl, and 0.5 ng/µl. The absorbance at 450 nm was read using a microplate reader (Tecan GENios). A quantitative calculation formula for m6A is as follows: m6A (ng) = (absorbanceofsamplewell-absorbanceofbackgroundwell)/slope of standard curve [formula] m6A (%) = m6A (ng)/RNA amount of sample (ng)*100%. [formula]
Table 1: Fold change in m6A methylation level relative to control group 1

[2] = Pharmacokinetic study after single topical administration of ointment to the skin of SD rats (LC-MS/MS); format: in vivo; details: rat, 20 mg/cm^2, SD rats, 20 mg/cm^2, 20 cm^2, mean
Protocol: 6 SD rats were divided into two groups, with 3 rats per group, where one group received an ointment containing the compound of formula (I) by single topical application to the dorsal skin at 20 mg/cm^2 (3% suspension ointment), with an application area of 20 cm^2, and the other group received an ointment containing the compound of formula (I) by single topical application to the dorsal skin at 20 mg/cm^2 (10% suspension ointment), with an application area of 20 cm^2. The plasma concentration and dorsal skin tissue homogenate concentration of the compound of formula (I) were determined by an LC-MS/MS method.

[3] = Pharmacokinetic study after single topical administration of ointment to the skin of Bama miniature pigs (LC-MS/MS); format: in vivo; details: pig, 3% suspension ointment, 20 mg/cm^2, mean
Protocol: 2 Bama miniature pigs respectively received an ointment containing the compound of formula (I) by single topical application to the dorsal and abdominal skin at 20 mg/cm^2 (3% suspension ointment), with a total application area of 6.8% of a body surface area, and a ratio of application areas between the dorsal and abdominal skin being approximately 1:1. The plasma concentration and skin tissue homogenate concentration of the compound of formula (I) were determined by an LC-MS/MS method.

SMILES: NC(=O)[C@H]1CCCc2c1[nH]c1ccc(Cl)cc21 [Compound of formula (I), (S)-6-chloro-2,3,4,9-tetrahydro-1H-carbazole-carboxamide]
- m6A fold change ([1]; 400 nM after 50 nM capecitabine): 1.1
- m6A fold change ([1]; 400 nM after 50 nM docetaxel): 1.0
- m6A fold change ([1]; 400 nM after 50 nM osimertinib): 1.2
- m6A fold change ([1]; 400 nM after 50 nM sorafenib): 1.4
- concentration at 24 h ([2]; dorsal skin tissue homogenate, dorsal skin homogenate, 3% suspension ointment, read-out: Drug concentration in skin tissues at 24 h): 161000 ng/g
- concentration at 24 h ([2]; dorsal skin tissue homogenate, dorsal skin homogenate, 10% suspension ointment, read-out: Drug concentration in skin tissues at 24 h): 800000 ng/g
- concentration at 24 h ([2]; plasma, 3% suspension ointment, read-out: Plasma drug concentration at 24 h): 3.21 ng/mL
- concentration at 24 h ([2]; plasma, 10% suspension ointment, read-out: Plasma drug concentration at 24 h): 17.3 ng/mL
- concentration at 24 h ([3]; read-out: Drug concentration in dorsal dermis skin tissues at 24 h): 88300 ng/g
- concentration at 24 h ([3]; abdominal skin tissue, read-out: Drug concentration in abdominal skin tissues at 24 h): 111000 ng/g
- concentration at 24 h ([3]; plasma, read-out: Plasma drug concentration at 24 h): 17.7 ng/mL
- AUC(0-t) ([3]; topical or ocular, plasma): 304 ng·h/mL
- Cmax ([3]; topical or ocular, plasma): 21.6 ng/mL
- MRT inf ([3]; topical or ocular, plasma): 15.2 h
- Tmax ([3]; topical or ocular, plasma): 16 h
